Experimental findings from patent publication US5773423A (priority 1994, dated 1998) are described below.

SMILES strings stand for the structures.

The target in this assay is T1, rat brain A1 receptors (Rattus norvegicus, UniProt P25099).
T1 construct: in rat brain membranes; from tissue; host or cells: rat brain membranes
T1 sequence (P25099 1-326): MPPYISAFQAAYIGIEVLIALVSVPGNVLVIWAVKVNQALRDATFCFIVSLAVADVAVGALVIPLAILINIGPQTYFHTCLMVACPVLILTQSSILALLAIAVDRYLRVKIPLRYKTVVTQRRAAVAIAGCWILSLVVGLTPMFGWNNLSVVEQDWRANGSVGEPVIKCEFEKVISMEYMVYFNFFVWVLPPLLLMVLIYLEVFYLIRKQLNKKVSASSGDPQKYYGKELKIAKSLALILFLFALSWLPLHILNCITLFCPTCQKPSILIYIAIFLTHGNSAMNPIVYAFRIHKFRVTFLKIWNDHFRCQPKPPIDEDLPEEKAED
The assay is described as follows: Displacement of [125I]APNEA binding in rat brain membranes. The note with it: read-out: IC50 vs. displacement of specific binding of [125I]APNEA, Ki (A1) column of Table 2, footnote f. A general note: Loss of bound radioactivity is the signal in a displacement assay; it reports binding, not function.

What is called IC50 is the midpoint of a concentration-inhibition curve. As for `Nc1ccc(CCNc2ncnc3c2ncn3[C@@H]2O[C@H](CO)[C@@H](O)[C@H]2O)cc1I` [[^125 I]APNEA, [^125 I]N^6-2-(4-aminophenyl)ethyladenosine], the IC50 was 2.1 nM.
